Where “and” joins values, the source holds several entries; their conditions need not be identical. Equal entries are not always repeated. Inconclusive results and toxic doses are left out. No stated cut-off is given here; in the data, active means T/C of 150% or more; inactive means T/C below 125%.
Test system: L1210 leukemia ip in BDF1 mice, survival T/C
Test: NCI In Vivo Anticancer Drug Screen. Data for tumor model L1210 Leukemia (intraperitoneal) in B6D2F1 (BDF1) mice
Conditions: endpoint: mean survival time, higher = longer survival
How it was run: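 Value reflects the ratio of survival in compound-treated mice to survival in vehicle-treated controls, with both groups carrying the same transplanted tumor.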

[1] = dose: 100.0 mg/kg/injection, schedule: Q01DX009 (ip), vehicle: saline
[2] = dose: 100.0 mg/kg/injection, schedule: Q04DX003 (ip), vehicle: saline
[3] = dose: 200.0 mg/kg/injection, schedule: Q04DX003 (ip), vehicle: saline
[4] = dose: 400.0 mg/kg/injection, schedule: Q04DX003 (ip), vehicle: saline
[5] = dose: 100.0 mg/kg/injection, schedule: Q01DX001 (ip), vehicle: other
[6] = dose: 200.0 mg/kg/injection, schedule: Q01DX001 (ip), vehicle: other
[7] = dose: 400.0 mg/kg/injection, schedule: Q01DX001 (ip), vehicle: other
[8] = dose: 100.0 mg/kg/injection, schedule: Q01DX009 (ip), vehicle: Klucel (hydroxypropylcellulose) (HPC)
[9] = dose: 100.0 mg/kg/injection, schedule: Q04DX003 (ip), vehicle: Klucel (hydroxypropylcellulose) (HPC)
[10] = dose: 200.0 mg/kg/injection, schedule: Q01DX009 (ip), vehicle: Klucel (hydroxypropylcellulose) (HPC)
[11] = dose: 200.0 mg/kg/injection, schedule: Q04DX003 (ip), vehicle: Klucel (hydroxypropylcellulose) (HPC)
[12] = dose: 400.0 mg/kg/injection, schedule: Q04DX003 (ip), vehicle: Klucel (hydroxypropylcellulose) (HPC)
[13] = dose: 100.0 mg/kg/injection, schedule: Q01DX001 (ip), vehicle: carboxymethylcellulose (CMC)
[14] = dose: 400.0 mg/kg/injection, schedule: Q01DX001 (ip), vehicle: carboxymethylcellulose (CMC)
[15] = dose: 200.0 mg/kg/injection, schedule: Q01DX009 (ip), vehicle: saline
[16] = dose: 400.0 mg/kg/injection, schedule: Q01DX009 (ip), vehicle: saline
[17] = dose: 100.0 mg/kg/injection, schedule: Q01DX009 (ip), vehicle: saline with Tween-80
[18] = dose: 100.0 mg/kg/injection, schedule: Q04DX003 (ip), vehicle: saline with Tween-80
[19] = dose: 200.0 mg/kg/injection, schedule: Q01DX009 (ip), vehicle: saline with Tween-80
[20] = dose: 200.0 mg/kg/injection, schedule: Q04DX003 (ip), vehicle: saline with Tween-80
[21] = dose: 400.0 mg/kg/injection, schedule: Q01DX009 (ip), vehicle: saline with Tween-80
[22] = dose: 400.0 mg/kg/injection, schedule: Q04DX003 (ip), vehicle: saline with Tween-80

Measured: T/C

COc1cc2c[n+](C)c3c4cc(OC)c(OC)cc4ccc3c2cc1OC
inactive: dose: 9.6 mg/kg/injection, schedule: Q01DX009 (ip), vehicle: saline with Tween-80 119 % of control | dose: 12.5 mg/kg/injection, schedule: Q01DX009 (ip), vehicle: water 111 % of control | dose: 14.0 mg/kg/injection, schedule: Q01DX009 (ip), vehicle: saline with Tween-80 115 % of control | dose: 25.0 mg/kg/injection, schedule: Q01DX009 (ip), vehicle: water 110 % of control and 122 % of control | dose: 50.0 mg/kg/injection, schedule: Q01DX009 (ip), vehicle: water 109 % of control and 114 % of control | [1] 123 % of control | [2] 100 % of control | dose: 100.0 mg/kg/injection, schedule: Q04DX003 (ip), vehicle: water 112 % of control | dose: 180.0 mg/kg/injection, schedule: Q01DX009 (ip), vehicle: saline 109 % of control | [3] 104 % of control | dose: 200.0 mg/kg/injection, schedule: Q04DX003 (ip), vehicle: water 113 % of control | dose: 240.0 mg/kg/injection, schedule: Q04DX003 (ip), vehicle: water 112 % of control | [4] 110 % of control | dose: 400.0 mg/kg/injection, schedule: Q04DX003 (ip), vehicle: water 107 % of control

CCCCCCCCCCCCCC(S(=O)(=O)CC)S(=O)(=O)CC
inactive: dose: 100.0 mg/kg/injection, schedule: Q01DX001 (ip), vehicle: Klucel (hydroxypropylcellulose) (HPC) 89 % of control | dose: 200.0 mg/kg/injection, schedule: Q01DX001 (ip), vehicle: Klucel (hydroxypropylcellulose) (HPC) 87 % of control | dose: 400.0 mg/kg/injection, schedule: Q01DX001 (ip), vehicle: Klucel (hydroxypropylcellulose) (HPC) 87 % of control

COC(=O)C(Nc1ccc([N+](=O)[O-])cc1[N+](=O)[O-])C(C)O (stereo not drawn)
inactive: [5] 104 % of control | [6] 101 % of control | [7] 111 % of control

Cc1ccc(NC(=O)Nc2ccc(Cl)c(Cl)c2)c(C)c1
inactive: [8] 90 % of control | [9] 89 % of control | [10] 90 % of control | [11] 89 % of control | [12] 89 % of control

O=[N+]([O-])c1cnc(/C=C/c2ccccc2)nc1
inactive: [13] 97 % of control | dose: 200.0 mg/kg/injection, schedule: Q01DX001 (ip), vehicle: carboxymethylcellulose (CMC) 95 % of control | [14] 89 % of control

CC1c2ccccc2OC(=O)C1C(=O)O (stereo not drawn)
inactive: dose: 88.8 mg/kg/injection, schedule: Q01DX001 (ip), vehicle: carboxymethylcellulose (CMC) 94 % of control | [13] 94 % of control | dose: 133.4 mg/kg/injection, schedule: Q01DX001 (ip), vehicle: carboxymethylcellulose (CMC) 94 % of control | dose: 300.0 mg/kg/injection, schedule: Q01DX001 (ip), vehicle: carboxymethylcellulose (CMC) 100 % of control | [14] 94 % of control

FC(F)(F)c1ccc(Cl)c(NC2=NCCCS2)c1
inactive: dose: 10.0 mg/kg/injection, schedule: Q01DX009 (ip), vehicle: saline 107 % of control | dose: 20.0 mg/kg/injection, schedule: Q01DX009 (ip), vehicle: saline 97 % of control | dose: 40.0 mg/kg/injection, schedule: Q01DX009 (ip), vehicle: saline 96 % of control | dose: 75.0 mg/kg/injection, schedule: Q01DX009 (ip), vehicle: saline 95 % of control | [8] 96 % of control | [9] 97 % of control | [10] 97 % of control | [11] 95 % of control | [12] 94 % of control

NC(=O)Oc1ccccc1
inactive: dose: 100.0 mg/kg/injection, schedule: Q01DX001 (ip), vehicle: saline 98 % of control | [1] 102 % of control | [2] 95 % of control | dose: 200.0 mg/kg/injection, schedule: Q01DX001 (ip), vehicle: saline 98 % of control | [15] 111 % of control | [3] 98 % of control | dose: 400.0 mg/kg/injection, schedule: Q01DX001 (ip), vehicle: saline 96 % of control | [16] 120 % of control | [4] 103 % of control

C[C@@]1(O)CCCC[C@H]1O
inactive: [1] 95 % of control | [2] 106 % of control | [15] 105 % of control | [3] 103 % of control | [16] 96 % of control | [4] 92 % of control

Cn1c(=O)n2n(c1=O)C1CCC2C2C=CC21 (stereo not drawn)
inactive: dose: 6.25 mg/kg/injection, schedule: Q01DX001 (ip), vehicle: saline 93 % of control | dose: 12.5 mg/kg/injection, schedule: Q01DX001 (ip), vehicle: saline 94 % of control

O=[N+]([O-])c1ccccc1SNc1ccccc1
inactive: [8] 102 % of control | [9] 96 % of control | [10] 105 % of control | dose: 400.0 mg/kg/injection, schedule: Q01DX009 (ip), vehicle: Klucel (hydroxypropylcellulose) (HPC) 107 % of control | [12] 103 % of control

CC(=O)OCC(=O)C1(O)CCC2C3CCC4CC(OC(C)=O)CCC4(C)C3CC(=O)C21C (stereo not drawn)
inactive: [5] 106 % of control | [6] 101 % of control | [7] 102 % of control

O=C(Nc1ccc2c(c1)OCO2)O/N=C\c1ccccc1
inactive: [17] 89 % of control | [18] 103 % of control | [19] 91 % of control | [20] 97 % of control | [21] 91 % of control | [22] 89 % of control

NC(=S)C(=S)NCCO
inactive: [17] 103 % of control | [18] 100 % of control | [19] 94 % of control | [20] 93 % of control | [21] 100 % of control | [22] 93 % of control

COCCNCCN1CCN(CCCN2c3ccccc3Sc3ccc(C(F)(F)F)cc32)CC1
inactive: dose: 6.25 mg/kg/injection, schedule: Q04DX003 (ip), vehicle: saline 110 % of control | dose: 12.5 mg/kg/injection, schedule: Q01DX009 (ip), vehicle: saline 107 % of control | dose: 12.5 mg/kg/injection, schedule: Q04DX003 (ip), vehicle: saline 96 % of control and 100 % of control | dose: 25.0 mg/kg/injection, schedule: Q01DX009 (ip), vehicle: saline 105 % of control | dose: 25.0 mg/kg/injection, schedule: Q04DX003 (ip), vehicle: saline 95 % of control and 105 % of control | dose: 50.0 mg/kg/injection, schedule: Q04DX003 (ip), vehicle: saline 102 % of control and 108 % of control

CCOC(=O)/C(C)=C\c1c(C)[nH]c(=O)[nH]c1=O
inactive: [1] 87 % of control | [2] 97 % of control | [15] 94 % of control | [3] 94 % of control | [16] 86 % of control | [4] 92 % of control

CCOC(=O)c1c(-c2ccc([N+](=O)[O-])cc2)cn(-c2ccc(OC)cc2)c1C
inactive: dose: 100.0 mg/kg/injection, schedule: Q04DX002 (ip), vehicle: Klucel (hydroxypropylcellulose) (HPC) 91 % of control | dose: 200.0 mg/kg/injection, schedule: Q04DX002 (ip), vehicle: Klucel (hydroxypropylcellulose) (HPC) 87 % of control | dose: 400.0 mg/kg/injection, schedule: Q04DX002 (ip), vehicle: Klucel (hydroxypropylcellulose) (HPC) 94 % of control

CCCCCCCCC1SC1CCCCCCCC(=O)N(C)c1ccccc1 (stereo not drawn)
inactive: [2] 97 % of control | [3] 99 % of control | [4] 94 % of control

N#CCCCCCCCCC(=O)OCCC#N
inactive: [5] 95 % of control | [6] 98 % of control | [7] 97 % of control

COC(=O)c1ccc(OC(=O)Nc2ccccc2F)cc1
inactive: dose: 25.0 mg/kg/injection, schedule: Q01DX009 (ip), vehicle: saline with Tween-80 106 % of control | dose: 50.0 mg/kg/injection, schedule: Q01DX009 (ip), vehicle: saline with Tween-80 119 % of control | [17] 95 % of control and 108 % of control

Source: PubChem BioAssay AID248 (DTP/NCI, 2004)
